Test results: US10820591B2, “Substituted sulfonyl amides for controlling animal pests” (Bayer Aktiengesellschaft, priority 2016, dated 2020)

System: Meloidogyne incognita
Test: Meloidogyne incognita test (sand, lettuce, gall formation)
Format: in vivo
Conditions: Meloidogyne incognita, 336 h, 20 ppm, after 14 days; read-out: nematicidal efficacy (formation of galls)
How it was run: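 Gall counts on lettuce roots were scored after 14 days in sand inoculated with root-knot nematode eggs/larvae plus compound diluted in water. Values run from 0% (galls as in untreated plants) to 100% (gall-free).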

Q: `CCOc1ccc(Cl)c(S(=O)(=O)NC(=O)c2cn(-c3cc(Cl)cc(Cl)c3)cn2)c1` [I-349] was tested. Which pest or weed control at 20 ppm did it give?
A: 100%

Q: How did the pest or weed control at 20 ppm turn out when `COc1ccc(Cl)c(S(=O)(=O)NC(=O)c2cn(-c3cccc(C(F)(F)F)c3)c(C)n2)c1` [I-275] was run?
A: 100%

Q: For `CC(C)Oc1ccc(Cl)c(S(=O)(=O)NC(=O)c2cn(-c3cc(Cl)cc(C(F)(F)F)c3)cn2)c1` [I-344], which pest or weed control at 20 ppm is on record?
A: 90%

Q: `Cc1nc(C(=O)NS(=O)(=O)c2cc(OC(C)C)ccc2Cl)cn1-c1cc(Cl)cc(Cl)c1` [I-366] was tested. Which pest or weed control at 20 ppm did it give?
A: 100%

Q: Which pest or weed control at 20 ppm does the source give for `COc1ccccc1S(=O)(=O)NC(=O)c1ncn(CCC(C)C)c1Cl` [I-048] here?
A: 90%

Q: How did the pest or weed control at 20 ppm turn out when `O=C(NS(=O)(=O)c1ccccc1)c1cn(-c2cc(Cl)c(Br)c(Cl)c2)cn1` [I-312] was run?
A: 90%

Q: How did the pest or weed control at 20 ppm turn out when `Cc1nc(C(=O)NS(=O)(=O)c2c(F)cccc2Cl)cn1-c1cc(F)cc(F)c1` [I-397] was run?
A: 70%

Q: How did the pest or weed control at 20 ppm turn out when `COc1ccc(Cl)c(S(=O)(=O)NC(=O)c2cn(-c3cc(C)cc(C(F)(F)F)c3)cn2)c1` [I-281] was run?
A: 90%

Q: `CC(=O)c1ccc(Cl)c(S(=O)(=O)NC(=O)c2cn(-c3cc(Cl)cc(Cl)c3)c(C)n2)c1` [I-372] was tested. Which pest or weed control at 20 ppm did it give?
A: 100%

Q: Which pest or weed control at 20 ppm does the source give for `COc1ccc(Cl)c(S(=O)(=O)NC(=O)c2cn(-c3cc(Cl)c(Cl)c(Cl)c3)cn2)c1` [I-303] here?
A: 90%

Q: For `O=C(NS(=O)(=O)c1ccc(Cl)cc1)c1ncn(-c2cccc(C(F)(F)F)c2)c1Cl` [I-431], which pest or weed control at 20 ppm is on record?
A: 90%

Q: Which pest or weed control at 20 ppm does the source give for `O=C(NS(=O)(=O)c1ccccc1Cl)c1cn(-c2cc(C(F)(F)F)cc(C(F)(F)F)c2)cn1` [I-285] here?
A: 90%

Q: With `CC(C)Sc1nc(C(=O)NS(=O)(=O)c2ccccc2Cl)cn1C` [I-476] as the compound, how does the pest or weed control at 20 ppm read?
A: 70%

Q: `O=C(NS(=O)(=O)c1c(Cl)cccc1Cl)c1cn(-c2cc(Br)cc(Br)c2)cn1` [I-293] was tested. Which pest or weed control at 20 ppm did it give?
A: 100%

Q: `O=C(NS(=O)(=O)c1ccccc1Cl)c1cn(-c2cc(F)cc(F)c2Cl)cn1` [I-310] was tested. Which pest or weed control at 20 ppm did it give?
A: 100%

Q: For `COc1ccc(S(=O)(=O)NC(=O)c2ncn(-c3ccc(C(F)(F)F)cc3)c2Cl)cc1` [I-426], which pest or weed control at 20 ppm is on record?
A: 90%

Q: Which pest or weed control at 20 ppm does the source give for `Cc1ccccc1S(=O)(=O)NC(=O)c1cn(CCC(F)(F)F)cn1` [I-017] here?
A: 90%

Q: `O=C(NS(=O)(=O)c1ccccc1Cl)c1cn(-c2cccc(Cl)c2Cl)cn1` [I-242] was tested. Which pest or weed control at 20 ppm did it give?
A: 100%

Q: With `O=C(NS(=O)(=O)c1c(Cl)cccc1Cl)c1cn(-c2cccc(C(F)(F)F)c2)cn1` [I-177] as the compound, how does the pest or weed control at 20 ppm read?
A: 100%

Q: Which pest or weed control at 20 ppm does the source give for `O=C(NS(=O)(=O)c1ccccc1Cl)c1cn(-c2ccc(Cl)cc2Cl)cn1` [I-200] here?
A: 100%

Q: `Cn1nc(C(=O)NS(=O)(=O)c2cc(Cl)ccc2Cl)cc1-c1ncc(C(F)(F)F)cc1Cl` [I-136] was tested. Which pest or weed control at 20 ppm did it give?
A: 100%

Q: With `O=C(NS(=O)(=O)c1ccccc1Cl)c1ncn(-c2ccc(C(F)(F)F)cc2)c1Cl` [I-423] as the compound, how does the pest or weed control at 20 ppm read?
A: 100%

Q: Which pest or weed control at 20 ppm does the source give for `O=C(NS(=O)(=O)c1ccccc1Cl)c1cn(-c2cc(Cl)cc(C(F)(F)F)c2)cn1` [I-278] here?
A: 90%

Q: For `COc1ccc(Cl)c(S(=O)(=O)NC(=O)c2cn(-c3ccc(Cl)cc3Cl)cn2)c1` [I-216], which pest or weed control at 20 ppm is on record?
A: 90%

Q: How did the pest or weed control at 20 ppm turn out when `O=C(NS(=O)(=O)c1c(Cl)cccc1Cl)c1cn(-c2cc(Cl)ccc2Cl)cn1` [I-205] was run?
A: 100%

Q: With `COc1ccc(Cl)c(S(=O)(=O)NC(=O)c2nc(Br)n(CCC(F)(F)F)c2Br)c1` [I-108] as the compound, how does the pest or weed control at 20 ppm read?
A: 100%

Q: Which pest or weed control at 20 ppm does the source give for `COc1ccc(Cl)c(S(=O)(=O)NC(=O)c2cc(-c3ccccc3Cl)n(C)n2)c1` [I-130] here?
A: 90%

Q: For `COc1cccc(S(=O)(=O)NC(=O)c2ncn(C3CC3C(F)(F)F)c2Cl)c1` (stereo not drawn) [I-063], which pest or weed control at 20 ppm is on record?
A: 100%

Q: `O=C(NS(=O)(=O)c1cccc(C(F)(F)F)c1)c1cn(CC(F)(F)F)cn1` [I-019] was tested. Which pest or weed control at 20 ppm did it give?
A: 90%

Q: `O=C(NS(=O)(=O)c1cccc(Cl)c1)c1ncn(CCC(F)(F)F)c1Cl` [I-020] was tested. Which pest or weed control at 20 ppm did it give?
A: 90%

Q: For `O=C(NS(=O)(=O)c1ccccc1Cl)c1ncn(CCC(F)(F)F)c1Br` [I-011], which pest or weed control at 20 ppm is on record?
A: 70%

Q: With `O=C(NS(=O)(=O)c1ccc(Cl)cc1Cl)c1cn(CC(F)(F)F)cn1` [I-014] as the compound, how does the pest or weed control at 20 ppm read?
A: 90%

Q: For `O=C(NS(=O)(=O)c1cccc(Cl)c1)c1ncn(-c2ccc(Cl)cc2)c1Cl` [I-417], which pest or weed control at 20 ppm is on record?
A: 100%

Q: How did the pest or weed control at 20 ppm turn out when `O=C(NS(=O)(=O)c1c(Cl)cccc1Cl)c1cn(-c2cc(F)cc(Cl)c2)cn1` [I-241] was run?
A: 90%

Q: For `Cn1nc(C(=O)NS(=O)(=O)c2ccccc2Cl)cc1-c1c(F)cccc1F` [I-142], which pest or weed control at 20 ppm is on record?
A: 100%

Q: With `COc1cccc(S(=O)(=O)NC(=O)c2ncn(C3CCCC3C(F)(F)F)c2Cl)c1` (stereo not drawn) [I-067] as the compound, how does the pest or weed control at 20 ppm read?
A: 70%

Q: For `O=C(NS(=O)(=O)c1cc(Cl)ccc1Cl)c1cn(-c2ccccc2F)cn1` [I-232], which pest or weed control at 20 ppm is on record?
A: 100%

Q: `O=C(NS(=O)(=O)c1c(F)cccc1NC1CC1)c1cn(-c2cc(Cl)cc(Cl)c2)cn1` [I-393] was tested. Which pest or weed control at 20 ppm did it give?
A: 100%

Q: With `O=C(NS(=O)(=O)c1cccc(Cl)c1)c1ncn(C2CCCC2C(F)(F)F)c1Cl` (stereo not drawn) [I-065] as the compound, how does the pest or weed control at 20 ppm read?
A: 90%

Q: How did the pest or weed control at 20 ppm turn out when `COc1ccc(F)c(S(=O)(=O)NC(=O)c2cn(-c3cc(Cl)cc(Cl)c3)c(C)n2)c1` [I-367] was run?
A: 100%

Q: `CSc1cccc(Cl)c1S(=O)(=O)NC(=O)c1cn(-c2cc(Cl)cc(Cl)c2)cn1` [I-390] was tested. Which pest or weed control at 20 ppm did it give?
A: 100%

Q: For `O=C(NS(=O)(=O)c1ccc(Cl)cc1)c1cn(Cc2c(F)cccc2F)cn1` [I-001], which pest or weed control at 20 ppm is on record?
A: 90%

Q: With `O=C(NS(=O)(=O)c1ccc(Cl)cc1)c1cn(CC(F)(F)F)cn1` [I-025] as the compound, how does the pest or weed control at 20 ppm read?
A: 90%

Q: With `Cc1nc(C(=O)NS(=O)(=O)c2ccccc2Cl)cn1-c1cc(Cl)cc(C(F)(F)F)c1` [I-326] as the compound, how does the pest or weed control at 20 ppm read?
A: 100%

Q: Which pest or weed control at 20 ppm does the source give for `CCOc1ccc(Cl)c(S(=O)(=O)NC(=O)c2nc(Cl)n(C3CC3C(F)(F)F)c2Cl)c1` (stereo not drawn) [I-459] here?
A: 100%

Q: Which pest or weed control at 20 ppm does the source give for `COc1ccc(Cl)c(S(=O)(=O)NC(=O)c2cn(-c3cc(Cl)cc(Cl)c3)cn2)c1` [I-188] here?
A: 100%

Q: Which pest or weed control at 20 ppm does the source give for `O=C(NS(=O)(=O)c1ccccc1Cl)c1cn(-c2cccc(C(F)(F)F)c2)cn1` [I-176] here?
A: 100%

Q: `COc1cccc(S(=O)(=O)NC(=O)c2ncn(CCCCl)c2Cl)c1` [I-053] was tested. Which pest or weed control at 20 ppm did it give?
A: 90%

Q: `CC(C)Oc1ccc(Cl)c(S(=O)(=O)NC(=O)c2cn(-c3cc(F)cc(C(F)(F)F)c3)cn2)c1` [I-354] was tested. Which pest or weed control at 20 ppm did it give?
A: 100%

Q: Which pest or weed control at 20 ppm does the source give for `COc1cccc(S(=O)(=O)NC(=O)c2ncn(-c3cccc(C(F)(F)F)c3)c2Cl)c1` [I-436] here?
A: 100%

Q: Which pest or weed control at 20 ppm does the source give for `Cc1nc(C(=O)NS(=O)(=O)c2cccc(Cl)c2)cn1-c1ccc(Cl)cc1` [I-261] here?
A: 100%

Q: With `O=C(NS(=O)(=O)c1ccccc1Cl)c1cc(-c2cc(Cl)cc(Cl)c2)n(CC(F)(F)F)n1` [I-447] as the compound, how does the pest or weed control at 20 ppm read?
A: 90%

Q: For `COc1ccc(S(=O)(=O)NC(=O)c2ncn(-c3cccc(C(F)(F)F)c3)c2Cl)cc1` [I-437], which pest or weed control at 20 ppm is on record?
A: 90%

Q: For `CCOc1ccc(Cl)c(S(=O)(=O)NC(=O)c2cn(-c3cc(Cl)cc(C(F)(F)F)c3)cn2)c1` [I-337], which pest or weed control at 20 ppm is on record?
A: 100%

Q: With `COc1ccc(Cl)c(S(=O)(=O)NC(=O)c2ncn(-c3ccccc3Cl)c2C2CC2)c1` [I-489] as the compound, how does the pest or weed control at 20 ppm read?
A: 90%

Q: Which pest or weed control at 20 ppm does the source give for `COc1ccc(Cl)cc1S(=O)(=O)NC(=O)c1nc(Cl)n(CCC(F)(F)F)c1Cl` [I-454] here?
A: 100%

Q: How did the pest or weed control at 20 ppm turn out when `O=C(NS(=O)(=O)c1ccc(Cl)cc1)c1cn(-c2cc(Cl)ccc2Cl)cn1` [I-204] was run?
A: 100%
